Experimental data reported in patent US5811441A, “Isoxazoline fibrinogen receptor antagonists” (The DuPont Merck Pharmaceutical Company, priority 1997, dated 1998).
Structures can show the parent of a compound that is named as a salt.

System: platelet aggregation (platelet rich plasma (PRP))
Test: Platelet Aggregation Assay (no esterase), platelet rich plasma
Type: cell-based
Details: human platelet rich plasma (PRP), concentration inhibiting platelet aggregation by 50% relative to control
Method: Platelet Aggregation Assay:
venous blood was obtained from the arm of a healthy human donor who was drug-free and aspirin-free for at least two weeks prior to blood collection. Blood was collected into 10 mL citrated Vacutainer tubes. The blood was centrifuged for 15 minutes at 150×g at room temperature, and platelet-rich plasma (PRP) was removed. The remaining blood was centrifuged for 15 minutes at 1500×g at room temperature, and platelet-poor plasma (PPP) was removed. Samples were assayed on a aggregometer (PAP-4 Platelet Aggregation Profiler), using PPP as the blank (100% transmittance). […] of PRP was added to each micro test tube, and transmittance was set to 0%. 20 μL of various agonists (ADP, collagen, arachidonate, epinephrine, thrombin) were added to each tube, and the aggregation profiles were plotted (% transmittance versus time). The results are expressed as % inhibition of agonist-induced platelet aggregation. For the IC50 evaluation, the test compounds were added at various concentrations prior to the activation of the platelets.
Table A below sets forth the antiplatelet activity of representative compounds of the present invention. The indicated compounds were tested for their ability to inhibit platelet aggregation (using platelet rich plasma (PRP)). The IC50 value (the concentration of antagonist which inhibits platelet aggregation by 50% relative to a control lacking the antagonist) is shown. In Table A the IC50 values are expressed as: +++=IC50 of <1 μM; ++=IC50 of 1-50 μM; +=IC50 of 50-100 μM (μM=micromolar).

SMILES	IC50 [µM]
Cc1noc(C)c1S(=O)(=O)N[C@@H](CNC(=O)C[C@H]1CC(c2ccc(C(=N)N)cc2)=NO1)C(=O)O [N^2-(3,5-dimethylisoxazole-4-sulfonyl)-N^3-[3-(4-amidinophenyl)isoxazolin-5(R)-ylacetyl]-(S)-2,3-diaminopropionate Trifluoroacetate Salt]	< 1
Cc1noc(C)c1S(=O)(=O)N[C@@H](CNC(=O)C[C@@H]1CC(c2ccc(C(=N)N)cc2)=NO1)C(=O)O [N^2-(3,5-Dimethylisoxazole-4-sulfonyl)-N^3-[3-(4-amidinophenyl)isoxazolin-5(S)-ylacetyl]-(S)-2,3-diamino-propionate Trifluoroacetate Salt]	< 1
Cc1noc(C)c1S(=O)(=O)N[C@@H](CNC(=O)CC1CC(c2ccc(C(=N)N)cc2)=NO1)C(=O)O (stereo partly drawn) [N^2-(3,5-dimethylisoxazole-4-sulfonyl)-N^3-[3-(4-amidinophenyl)isoxazolin-5(R,S)-ylacetyl]-(S)-2,3-diaminopropionateTrifluoroacetate Salt]	< 1
